Test results: article PMC7519584 (Clinical cancer research : an official journal of the …, 2015)

What was measured:
[1] = human, in vivo
[2] = ref NCT00610194; cited from earlier work
[3] = clinical; settings: human, in vivo
[4] = Plasma pharmacokinetics of refametinib, metabolite M17 and sorafenib; settings: human, in vivo, Geometric mean maximum drug concentration (Cmax), multiple dose, day 1 of course 2, at the MTD, non-HCC patients
[5] = test system: HCC; settings: sorafenib monotherapy, phase III trial in HCC (SHARP); cited from earlier work

SMILES	Patients with serious AEs considered possibly related to refametinib (human, in vivo) [patients]	Maximum tolerated dose (MTD) of refametinib (in combination with sorafenib 400 mg twice daily, 28-day courses) [mg twice daily]	Multiple-dose AUC0–12 higher than single-dose AUC0–12 by an average of [1]	Accumulation after multiple dosing ([1]; 28 days)	MTD of refametinib monotherapy [2] [mg twice daily]	half-life ([3]; Plasma half-life (geometric mean)) [min]	Tmax ([3]; po) [h]	Cmax [4] [ng/mL]	Sorafenib dose at the MTD of the combination (in combination with refametinib 50 mg twice daily, 28-day courses) [mg twice daily]	Patients who achieved stable disease [5] [%]	Response rate [5] [%]
COc1cc(F)c(F)c(Nc2ccc(I)cc2F)c1NS(=O)(=O)C1(C[C@H](O)CO)CC1 [refametinib]	10	50	approximately 40%	less than 2 fold	50	~960	~3	674			
CNC(=O)c1cc(Oc2ccc(NC(=O)Nc3ccc(Cl)c(C(F)(F)F)c3)cc2)ccn1 [sorafenib]									400	71	2
